Converted amounts (≈) assume the structure as drawn.

In the first experiment the test system is M. tuberculosis strains. The experiment is described as follows: Minimum Inhibitory Concentration (MIC) against M. tuberculosis strains, resazurin microtiter plate assay. Format: cell-based, Mycobacterium tuberculosis. The following applies: Mycobacterium tuberculosis.
The term MIC90 denotes the lowest concentration that inhibits either 90% of growth or 90% of the strains tested, depending on the study. Molecule `Cc1cc2nccc(-c3cccc(Cl)c3)c2c(C)c1-c1ccc(CN2CCOCC2)cc1` [Compound 49] came in with an MIC90 of 0.6 µM (≈ 0.266 µg/mL).
Still for that read-out and setting: the result for `Cc1cc2nccc(-c3ccccc3)c2c(C)c1-c1ccnn1C` [Compound 76] reads 47 µM (≈ 14.7 µg/mL).
Molecule `Cc1cc2nccc(-c3ccccc3)c2c(C)c1-c1cnn(C)c1` [Compound 77] returned an MIC90 of 47 µM (≈ 14.7 µg/mL).
Still for that read-out and setting: in the case of `CNC(=O)c1cc(-c2ccccc2F)c2c(C)c(-c3ccoc3)c(C)cc2n1` [Compound 80] it was 0.6 µM (≈ 0.225 µg/mL).
In turn, `Cc1cc2nccc(-c3ccccc3C(=O)O)c2c(C)c1-c1ccc(CN2CCOCC2)cc1` [Compound 57] yielded an MIC90 of 40 µM (≈ 18.1 µg/mL).
Regarding `CNC(=O)c1cc(-c2ccccc2F)c2c(C)c(C3=CCNCC3)c(C)cc2n1` [Compound 86], the MIC90 came out at 20 µM (≈ 7.79 µg/mL).
As for `COc1cccc(-c2ccnc3cc(C)c(-c4ccc(CN5CCOCC5)cc4)c(C)c23)c1OC` [Compound 51], the MIC90 is over 40 µM.
Same read-out and setting: in the case of `CNC(=O)c1cc(-c2cccc(Cl)c2)c2c(C)c(-c3ccncc3)c(C)cc2n1` [Compound 66] it was 2.5 µM (≈ 1 µg/mL).
Same read-out and setting: the result for `Cc1cc2nccc(-c3ccccc3Cl)c2c(C)c1-c1ccc(CN2CCOCC2)cc1` [Compound 48] reads 0.3 µM (≈ 0.133 µg/mL); that for `Cc1cc2nccc(-c3cccnc3C#N)c2c(C)c1-c1ccc(CN2CCOCC2)cc1` [Compound 62], 7.5 µM (≈ 3.26 µg/mL).

The same experiment, now with this note: Mycobacterium tuberculosis, Table 1, C2 SAR with chlorophenyl; Middlebrook 7H9, 37° C. six days, resazurin fluorescence after 48 hours; read-out: MIC90.
Turning to `Cc1cc2nc(C(=O)NCCO)cc(-c3ccccc3Cl)c2c(C)c1-c1ccncc1` [Compound 15], the MIC90 is 0.3 µM (≈ 0.13 µg/mL).
Take `Cc1cc2nc(C(=O)NCC(O)CO)cc(-c3ccccc3Cl)c2c(C)c1-c1ccncc1` (stereo not shown) [Compound 22]: the MIC90 amounted to 0.4 µM (≈ 0.185 µg/mL).
With `Cc1cc2nc(C(=O)NC3CC3)cc(-c3ccccc3Cl)c2c(C)c1-c1ccncc1` [Compound 14], the MIC90 turned out to be 1.9 µM (≈ 0.813 µg/mL).
With `Cc1cc2nc(N)cc(-c3ccccc3Cl)c2c(C)c1-c1ccncc1` [Compound 7], the MIC90 turned out to be 10 µM (≈ 3.6 µg/mL).
For `Cc1cc2nc(C(=O)N3CCOCC3)cc(-c3ccccc3Cl)c2c(C)c1-c1ccncc1` [Compound 32], the MIC90 was determined as 15 µM (≈ 6.87 µg/mL).
Turning to `Cc1cc2nc(C(=O)NS(=O)(=O)C3CC3)cc(-c3ccccc3Cl)c2c(C)c1-c1ccncc1` [Compound 20], the MIC90 came to 2.5 µM (≈ 1.23 µg/mL).
On the same count and under the same terms, the result for `Cc1cc2nc(C(=O)N[C@H]3CCC[C@@H]3O)cc(-c3ccccc3Cl)c2c(C)c1-c1ccncc1` [Compound 24] reads 0.6 µM (≈ 0.283 µg/mL); that for `Cc1cc2nc(C(=O)NCC(C)(C)C(=O)O)cc(-c3ccccc3Cl)c2c(C)c1-c1ccncc1` [Compound 28], 80 µM (≈ 39 µg/mL).
The same measure, in the same setting: the result for `Cc1cc2nc(C(=O)N[C@H]3CCCC[C@@H]3O)cc(-c3ccccc3Cl)c2c(C)c1-c1ccncc1` [Compound 23] reads 1.25 µM (≈ 0.608 µg/mL); that for `Cc1cc2nc(C(=O)NCC(N)=O)cc(-c3ccccc3Cl)c2c(C)c1-c1ccncc1` [Compound 27], 0.8 µM (≈ 0.356 µg/mL); that for `CNC(=O)c1cc(-c2ccccc2Cl)c2c(C)c(-c3ccncc3)c(C)cc2n1` [Compound 13], 0.8 µM (≈ 0.322 µg/mL).
The same measure, in the same setting: in the case of `Cc1cc2nc(CN(C)C)cc(-c3ccccc3Cl)c2c(C)c1-c1ccncc1` [Compound 5] it was 10 µM (≈ 4.02 µg/mL); in that of `Cc1cc2nc(C(C)(C)O)cc(-c3ccccc3Cl)c2c(C)c1-c1ccncc1` [Compound 4], over 40 µM.
In the case of `Cc1cc2nc(CO)cc(-c3ccccc3Cl)c2c(C)c1-c1ccncc1` [Compound 3], the MIC90 was found to be 3.75 µM (≈ 1.41 µg/mL).
The same measure, in the same setting: in the case of `Cc1cc2nc(C(=O)NCCN(C)C)cc(-c3ccccc3Cl)c2c(C)c1-c1ccncc1` [Compound 16] it was 0.3 µM (≈ 0.138 µg/mL).
Regarding `Cc1cc2nccc(-c3ccccc3Cl)c2c(C)c1-c1ccncc1` [Compound 1], the MIC90 is 5 µM (≈ 1.72 µg/mL).
The same measure, in the same setting: in the case of `Cc1cc2nc(C(=O)N3CCNCC3)cc(-c3ccccc3Cl)c2c(C)c1-c1ccncc1` [Compound 30] it was 10 µM (≈ 4.57 µg/mL); in that of `Cc1cc2nc(C(=O)NCC(C)(C)CO)cc(-c3ccccc3Cl)c2c(C)c1-c1ccncc1` [Compound 35], 1.6 µM (≈ 0.758 µg/mL); in that of `Cc1cc2nc(C(N)=O)cc(-c3ccccc3Cl)c2c(C)c1-c1ccncc1` [Compound 12], 1.25 µM (≈ 0.485 µg/mL).
On to `Cc1cc2nc(CNCCO)cc(-c3ccccc3Cl)c2c(C)c1-c1ccncc1` [Compound 6], for which the MIC90 amounted to 5 µM (≈ 2.09 µg/mL).
On the same count and under the same terms, the result for `Cc1cc2nc(C(=O)NCC3CCCS(=O)(=O)C3)cc(-c3ccccc3Cl)c2c(C)c1-c1ccncc1` (stereo not shown) [Compound 21] reads 0.8 µM (≈ 0.427 µg/mL).

Staying with this experiment, now noted: Mycobacterium tuberculosis, Table 1A, C2 SAR with fluorophenyl; Middlebrook 7H9, 37° C. six days, resazurin fluorescence after 48 hours; read-out: MIC90.
With `Cc1cc2nc(C(=O)N[C@H](C)CCO)cc(-c3ccccc3F)c2c(C)c1-c1ccncc1` [Compound 41], the MIC90 came out at 0.16 µM (≈ 0.071 µg/mL).
The same measure, in the same setting: the result for `Cc1cc2nc(C(=O)NC3CCN(C)CC3)cc(-c3ccccc3F)c2c(C)c1-c1ccncc1` [Compound 46] reads 1.25 µM (≈ 0.586 µg/mL); that for `Cc1cc2nc(C(=O)NC[C@@H](O)CO)cc(-c3ccccc3F)c2c(C)c1-c1ccncc1` [Compound 44], 0.6 µM (≈ 0.267 µg/mL); that for `Cc1cc2nc(C(=O)N[C@H](C)CO)cc(-c3ccccc3F)c2c(C)c1-c1ccncc1` [Compound 39], 0.6 µM (≈ 0.258 µg/mL).
The same measure, in the same setting: the result for `Cc1cc2nc(C(=O)NC3CCN(C)C3)cc(-c3ccccc3F)c2c(C)c1-c1ccncc1` (stereo not shown) [Compound 45] reads 1.25 µM (≈ 0.568 µg/mL); that for `Cc1cc2nc(C(=O)N[C@@H](C)CO)cc(-c3ccccc3F)c2c(C)c1-c1ccncc1` [Compound 40], 0.3 µM (≈ 0.129 µg/mL).

The experiment is the same for the next values; noted with them: Mycobacterium tuberculosis, Table 2, C4 SAR; Middlebrook 7H9, 37° C. six days, resazurin fluorescence after 48 hours; read-out: MIC90.
For `COc1ccncc1-c1ccnc2cc(C)c(-c3ccc(CN4CCOCC4)cc3)c(C)c12` [Compound 59], the MIC90 came to 2.5 µM (≈ 1.1 µg/mL).
The same measure, in the same setting: in the case of `Cc1cc2nccc(-c3ccccc3C(N)=O)c2c(C)c1-c1ccc(CN2CCOCC2)cc1` [Compound 56] it was 20 µM (≈ 9.03 µg/mL); in that of `Cc1cc2nccc(-c3ccccc3C#N)c2c(C)c1-c1ccc(CN2CCOCC2)cc1` [Compound 52], 2.5 µM (≈ 1.08 µg/mL); in that of `COc1ncccc1-c1ccnc2cc(C)c(-c3ccc(CN4CCOCC4)cc3)c(C)c12` [Compound 60], 2.5 µM (≈ 1.1 µg/mL).
On the same count and under the same terms, in the case of `Cc1cc2nccc(-c3ccccc3CO)c2c(C)c1-c1ccc(CN2CCOCC2)cc1` [Compound 55] it was 2.5 µM (≈ 1.1 µg/mL); in that of `CCN(CC)Cc1ccccc1-c1ccnc2cc(C)c(-c3ccc(CN4CCOCC4)cc3)c(C)c12` [Compound 54], 2.5 µM (≈ 1.23 µg/mL); in that of `Cc1cc(-c2ccnc3cc(C)c(-c4ccc(CN5CCOCC5)cc4)c(C)c23)n(C)n1` [Compound 61], over 40 µM.
On the same count and under the same terms, the result for `COc1cccc(-c2ccnc3cc(C)c(-c4ccc(CN5CCOCC5)cc4)c(C)c23)c1Cl` [Compound 53] reads 10 µM (≈ 4.73 µg/mL); that for `Cc1cc2nccc(-c3cncnc3C)c2c(C)c1-c1ccc(CN2CCOCC2)cc1` [Compound 65], 5 µM (≈ 2.12 µg/mL).

Staying with this experiment, now noted: Mycobacterium tuberculosis, Table 3, C4 SAR; Middlebrook 7H9, 37° C. six days, resazurin fluorescence after 48 hours; read-out: MIC90.
As for `CNC(=O)c1cc(-c2ccccc2Cl)c2c(C)c(-c3ccncc3)c(C)cc2n1` [Compound 13], the MIC90 turned out to be 0.8 µM (≈ 0.322 µg/mL).
The same measure, in the same setting: the result for `CNC(=O)c1cc(N2CCCC2)c2c(C)c(-c3ccncc3)c(C)cc2n1` [Compound 71] reads over 50 µM.

Staying with this experiment, now noted: Mycobacterium tuberculosis, Table 4, C6 SAR; Middlebrook 7H9, 37° C. six days, resazurin fluorescence after 48 hours; read-out: MIC90.
For `Cc1cc2nccc(-c3ccccc3)c2c(C)c1-c1ccncc1` [Compound 72], the MIC90 worked out at 5 µM (≈ 1.55 µg/mL).

The same experiment, now with this note: Mycobacterium tuberculosis, Table 4A, C6 SAR with amide; Middlebrook 7H9, 37° C. six days, resazurin fluorescence after 48 hours; read-out: MIC90.
Take `CNC(=O)c1cc(-c2ccccc2F)c2c(C)c(-c3cccs3)c(C)cc2n1` [Compound 81]: the MIC90 stood at 3 µM (≈ 1.17 µg/mL).
Same read-out and setting: in the case of `CNC(=O)c1cc(-c2ccccc2F)c2c(C)c(-c3cccnc3)c(C)cc2n1` [Compound 85] it was 3 µM (≈ 1.16 µg/mL).
As to `CNC(=O)c1cc(-c2ccccc2F)c2c(C)c(C3=CCC(C(=O)O)CC3)c(C)cc2n1` (stereo not shown) [Compound 87], the MIC90 was 2.5 µM (≈ 1.08 µg/mL).
On the same count and under the same terms, in the case of `CNC(=O)c1cc(-c2ccccc2F)c2c(C)c(C3=CCN(S(=O)(=O)N4CCOCC4)CC3)c(C)cc2n1` [Compound 88] it was 10 µM (≈ 5.39 µg/mL); in that of `CNC(=O)c1cc(-c2ccccc2F)c2c(C)c(-c3ccc(CN4CCOCC4)cc3)c(C)cc2n1` [Compound 78], 0.6 µM (≈ 0.29 µg/mL); in that of `CNC(=O)c1cc(-c2ccccc2F)c2c(C)c(C3=CCC(CN4CCOCC4)CC3)c(C)cc2n1` (stereo not shown) [Compound 92], 1.25 µM (≈ 0.61 µg/mL).
Still for that read-out and setting: the result for `CNC(=O)c1cc(-c2ccccc2F)c2c(C)c(-c3ccnc(N)c3)c(C)cc2n1` [Compound 83] reads 7.5 µM (≈ 3 µg/mL); that for `CNC(=O)c1cc(-c2ccccc2F)c2c(C)c(C3=CCC(C(=O)N4CCOCC4)CC3)c(C)cc2n1` (stereo not shown) [Compound 89], 1.25 µM (≈ 0.627 µg/mL); that for `CNC(=O)c1cc(-c2ccccc2F)c2c(C)c(C3=CCN(C(=O)N4CCOCC4)CC3)c(C)cc2n1` [Compound 90], 5 µM (≈ 2.51 µg/mL).
Still for that read-out and setting: in the case of `CNC(=O)c1cc(-c2ccccc2F)c2c(C)c(-c3cnc(C(=O)O)nc3)c(C)cc2n1` [Compound 82] it was 80 µM (≈ 34.4 µg/mL).

The same experiment, now with this note: Mycobacterium tuberculosis, Table 5; Middlebrook 7H9, 37° C. six days, resazurin fluorescence after 48 hours; read-out: MIC90.
For `Cc1cc2nc(C(=O)NS(C)(=O)=O)cc(-c3ccccc3Cl)c2c(C)c1-c1ccncc1` [Compound 94], the MIC90 was 5 µM (≈ 2.33 µg/mL).
Same read-out and setting: in the case of `Cc1cc2nccc(-c3cccnc3)c2c(C)c1-c1ccc(CN2CCOCC2)cc1` [Compound 93] it was 1.6 µM (≈ 0.655 µg/mL).
The same measure, in the same setting: in the case of `Cc1cc2nc(C(=O)N[C@@H]3CCC[C@H]3O)cc(-c3ccccc3F)c2c(C)c1-c1ccncc1` [Compound 98] it was 0.6 µM (≈ 0.273 µg/mL).
On the same count and under the same terms, in the case of `CNC(=O)c1cc(-c2ccccc2)c2c(C)c(-c3ccncc3)c(C)cc2n1` [Compound 95] it was 0.3 µM (≈ 0.11 µg/mL); in that of `CNC(=O)c1cc(N2CCNCC2)c2c(C)c(-c3ccncc3)c(C)cc2n1` [Compound 101], over 50 µM.

Still in this experiment, the particulars now being: Mycobacterium tuberculosis, Table 6; Middlebrook 7H9, 37° C. six days, resazurin fluorescence after 48 hours; read-out: MIC90.
Consider `CNC(=O)c1cc(-c2ccnn2C)c2c(C)c(-c3ccncc3)c(C)cc2n1` [Compound 104], for which the MIC90 was 6 µM (≈ 2.23 µg/mL).
On the same count and under the same terms, the result for `Cc1cc2nc(C(=O)N[C@@H]3CN(C)C[C@@H]3F)cc(-c3ccnn3C)c2c(C)c1-c1ccncc1` [Compound 106] reads 1.6 µM (≈ 0.734 µg/mL).
Still for that read-out and setting: the result for `Cc1cc2nc(C(=O)N[C@@H]3CNC[C@@H]3F)cc(-c3ccnn3C)c2c(C)c1-c1ccncc1` (racemic) [Compound 105, N-[(3R,4S and 3S,4R)-4-fluoropyrrolidin-3-yl]-5,7-dimethyl-4-(2-methylpyrazol-3-yl)-6-(4-pyridyl)quinoline-2-carboxamide] reads 3 µM (≈ 1.33 µg/mL).

The record behind these values is patent US10745356B2, “Compositions and methods for treating tuberculosis” (priority 2015, dated 2020).
